The results in this text go back to ChEMBL document CHEMBL1145631, “Development of a fluorescence polarization based assay for histone deacetylase ligand discovery” (Bioorg Med Chem Lett, 2008).

Assay [1] deals with Histone deacetylase 3/Nuclear receptor corepressor 2 (HDAC3/NCoR2) (Homo sapiens, UniProt O15379). The format is protein-complex assay.
Description: Displacement of fluorescent 5-(3-(3-(4-((4-((7-(hydroxyamino)-7-oxoheptyl)carbamoyl)phenylamino)methyl)-1H-1,2,3-triazol-1-yl)propyl)thioureido)-2-(3-hydroxy-6-oxo-6H-xanthen-9-yl)benzoic acid from human HDAC3/NcoR2 by fluorescence polarization assay
In assay [2] the target is T1, Protein deacetylase HDAC6 (Homo sapiens, UniProt Q9UBN7).
T1 sequence (Q9UBN7 whole entry): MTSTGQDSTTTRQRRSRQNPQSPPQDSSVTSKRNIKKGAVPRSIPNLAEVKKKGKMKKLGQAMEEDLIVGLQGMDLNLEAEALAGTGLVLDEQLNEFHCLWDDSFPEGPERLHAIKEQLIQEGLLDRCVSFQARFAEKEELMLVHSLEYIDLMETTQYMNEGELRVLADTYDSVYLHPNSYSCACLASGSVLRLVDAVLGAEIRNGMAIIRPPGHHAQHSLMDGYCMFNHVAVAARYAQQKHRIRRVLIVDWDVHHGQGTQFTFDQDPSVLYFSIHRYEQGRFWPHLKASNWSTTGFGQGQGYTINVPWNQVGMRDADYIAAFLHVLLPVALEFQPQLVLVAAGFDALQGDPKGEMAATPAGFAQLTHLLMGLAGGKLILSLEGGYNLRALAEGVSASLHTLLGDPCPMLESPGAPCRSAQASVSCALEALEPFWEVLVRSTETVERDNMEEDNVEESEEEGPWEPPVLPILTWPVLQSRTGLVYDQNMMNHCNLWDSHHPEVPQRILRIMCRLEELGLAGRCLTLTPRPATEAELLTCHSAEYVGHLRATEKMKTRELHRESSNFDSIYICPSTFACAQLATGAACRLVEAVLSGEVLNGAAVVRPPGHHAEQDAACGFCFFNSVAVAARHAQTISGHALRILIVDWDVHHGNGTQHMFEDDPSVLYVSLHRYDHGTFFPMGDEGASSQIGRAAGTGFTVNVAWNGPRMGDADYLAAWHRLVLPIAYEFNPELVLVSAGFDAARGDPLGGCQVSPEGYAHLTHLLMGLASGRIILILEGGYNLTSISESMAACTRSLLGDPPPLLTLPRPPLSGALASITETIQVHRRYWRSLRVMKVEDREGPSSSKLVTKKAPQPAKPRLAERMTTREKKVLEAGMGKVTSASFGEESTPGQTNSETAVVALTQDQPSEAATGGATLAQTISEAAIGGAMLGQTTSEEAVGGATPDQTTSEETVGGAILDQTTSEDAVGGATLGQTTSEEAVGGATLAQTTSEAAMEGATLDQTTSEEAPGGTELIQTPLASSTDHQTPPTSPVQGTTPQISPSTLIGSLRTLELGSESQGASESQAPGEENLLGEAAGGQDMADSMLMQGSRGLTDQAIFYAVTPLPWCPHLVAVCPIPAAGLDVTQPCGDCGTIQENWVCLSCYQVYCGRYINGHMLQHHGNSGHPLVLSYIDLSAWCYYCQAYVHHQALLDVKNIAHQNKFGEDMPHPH
Description: Displacement of fluorescent 5-(3-(3-(4-((4-((7-(hydroxyamino)-7-oxoheptyl)carbamoyl)phenylamino)methyl)-1H-1,2,3-triazol-1-yl)propyl)thioureido)-2-(3-hydroxy-6-oxo-6H-xanthen-9-yl)benzoic acid from human HDAC6 by fluorescence polarization assay

A further assay concerns the target Histone deacetylase. The format is protein assay, Homo sapiens.

Sequence of Histone deacetylase 3/Nuclear receptor corepressor 2 (HDAC3/NCoR2) (O15379 whole entry): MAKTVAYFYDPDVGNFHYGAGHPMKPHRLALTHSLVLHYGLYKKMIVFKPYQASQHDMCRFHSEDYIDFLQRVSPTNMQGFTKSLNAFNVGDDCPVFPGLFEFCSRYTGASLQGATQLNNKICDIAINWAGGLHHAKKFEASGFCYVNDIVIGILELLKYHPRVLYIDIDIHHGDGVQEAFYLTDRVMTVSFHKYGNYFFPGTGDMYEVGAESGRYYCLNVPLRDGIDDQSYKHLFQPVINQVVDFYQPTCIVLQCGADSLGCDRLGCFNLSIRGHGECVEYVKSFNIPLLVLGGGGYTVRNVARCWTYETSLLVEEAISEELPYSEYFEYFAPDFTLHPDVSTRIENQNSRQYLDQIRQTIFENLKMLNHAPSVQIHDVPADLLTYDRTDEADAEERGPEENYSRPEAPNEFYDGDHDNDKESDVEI
Sequence of Histone deacetylase 3/Nuclear receptor corepressor 2 (HDAC3/NCoR2) (Q9Y618 whole entry, further chain): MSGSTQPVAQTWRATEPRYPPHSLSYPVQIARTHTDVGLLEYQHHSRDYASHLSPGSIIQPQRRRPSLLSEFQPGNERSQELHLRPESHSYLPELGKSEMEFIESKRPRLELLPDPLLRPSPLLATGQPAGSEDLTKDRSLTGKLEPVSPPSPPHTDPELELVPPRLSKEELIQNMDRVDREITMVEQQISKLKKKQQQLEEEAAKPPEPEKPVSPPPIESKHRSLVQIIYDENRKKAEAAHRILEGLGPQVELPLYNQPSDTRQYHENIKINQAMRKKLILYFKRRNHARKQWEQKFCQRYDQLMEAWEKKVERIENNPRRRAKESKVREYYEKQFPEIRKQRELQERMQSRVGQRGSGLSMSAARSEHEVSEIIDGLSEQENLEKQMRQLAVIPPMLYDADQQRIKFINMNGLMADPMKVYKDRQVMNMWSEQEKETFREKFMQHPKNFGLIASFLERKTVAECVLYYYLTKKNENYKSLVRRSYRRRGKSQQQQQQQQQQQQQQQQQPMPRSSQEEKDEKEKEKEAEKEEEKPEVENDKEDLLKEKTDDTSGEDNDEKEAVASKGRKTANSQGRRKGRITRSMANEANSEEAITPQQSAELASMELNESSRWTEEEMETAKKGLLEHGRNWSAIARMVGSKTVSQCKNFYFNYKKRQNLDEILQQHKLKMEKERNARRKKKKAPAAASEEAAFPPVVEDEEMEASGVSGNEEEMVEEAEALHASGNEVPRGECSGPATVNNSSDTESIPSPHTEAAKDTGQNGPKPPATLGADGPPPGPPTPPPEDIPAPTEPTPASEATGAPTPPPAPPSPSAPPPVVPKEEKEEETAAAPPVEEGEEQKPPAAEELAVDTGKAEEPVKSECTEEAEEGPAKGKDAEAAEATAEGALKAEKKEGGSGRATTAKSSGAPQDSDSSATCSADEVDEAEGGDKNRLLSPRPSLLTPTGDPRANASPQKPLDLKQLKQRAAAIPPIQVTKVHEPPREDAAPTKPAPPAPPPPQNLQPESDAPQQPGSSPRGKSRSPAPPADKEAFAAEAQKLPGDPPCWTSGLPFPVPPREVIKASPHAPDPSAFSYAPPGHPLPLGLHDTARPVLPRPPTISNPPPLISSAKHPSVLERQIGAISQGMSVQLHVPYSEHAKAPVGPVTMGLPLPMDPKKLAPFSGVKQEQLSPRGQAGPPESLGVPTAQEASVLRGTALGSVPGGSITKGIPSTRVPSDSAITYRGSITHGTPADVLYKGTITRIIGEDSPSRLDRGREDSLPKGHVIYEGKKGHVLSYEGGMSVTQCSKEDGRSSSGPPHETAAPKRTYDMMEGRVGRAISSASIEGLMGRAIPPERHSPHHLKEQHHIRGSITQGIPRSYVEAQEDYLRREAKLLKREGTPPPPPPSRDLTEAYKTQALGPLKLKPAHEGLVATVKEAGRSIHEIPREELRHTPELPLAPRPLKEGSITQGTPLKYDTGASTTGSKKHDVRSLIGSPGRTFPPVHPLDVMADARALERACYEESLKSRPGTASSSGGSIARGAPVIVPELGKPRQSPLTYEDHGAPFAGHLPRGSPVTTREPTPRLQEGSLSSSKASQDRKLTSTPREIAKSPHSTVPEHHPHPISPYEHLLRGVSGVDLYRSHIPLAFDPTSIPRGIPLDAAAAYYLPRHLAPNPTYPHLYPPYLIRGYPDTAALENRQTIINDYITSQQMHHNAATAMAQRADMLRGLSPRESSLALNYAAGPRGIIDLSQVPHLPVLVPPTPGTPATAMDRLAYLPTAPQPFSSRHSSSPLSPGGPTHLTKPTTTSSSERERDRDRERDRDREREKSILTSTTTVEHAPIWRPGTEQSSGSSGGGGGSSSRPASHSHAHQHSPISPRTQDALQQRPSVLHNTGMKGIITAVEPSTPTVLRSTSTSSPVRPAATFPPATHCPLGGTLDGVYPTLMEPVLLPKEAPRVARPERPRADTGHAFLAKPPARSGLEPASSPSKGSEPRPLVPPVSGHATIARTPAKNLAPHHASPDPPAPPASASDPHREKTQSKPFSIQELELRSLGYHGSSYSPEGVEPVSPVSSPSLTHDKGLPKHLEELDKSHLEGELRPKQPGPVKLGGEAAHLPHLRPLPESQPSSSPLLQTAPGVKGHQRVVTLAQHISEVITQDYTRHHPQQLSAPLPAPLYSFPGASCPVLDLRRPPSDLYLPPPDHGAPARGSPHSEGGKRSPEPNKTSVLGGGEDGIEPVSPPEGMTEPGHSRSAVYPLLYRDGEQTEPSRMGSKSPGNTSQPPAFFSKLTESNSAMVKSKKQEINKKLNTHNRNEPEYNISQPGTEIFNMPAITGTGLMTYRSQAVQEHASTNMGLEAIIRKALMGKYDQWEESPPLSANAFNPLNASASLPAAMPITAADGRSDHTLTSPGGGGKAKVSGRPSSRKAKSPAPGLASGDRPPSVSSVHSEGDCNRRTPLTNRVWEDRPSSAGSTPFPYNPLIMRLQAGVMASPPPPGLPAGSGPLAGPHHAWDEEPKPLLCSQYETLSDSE

Turning to `O=C(CCCCCCNC(=O)c1ccc(NCc2cn(CCCNC(=S)Nc3ccc(-c4c5ccc(=O)cc-5oc5ccccc45)c(C(=O)O)c3)nn2)cc1)NO`, the Kd in assay [1] came to 0.002 µM; in assay [2] it was 0.0046 µM.
As for `NCCCn1cc(CNc2ccc(C(=O)NCCCCCCC(=O)NO)cc2)nn1`, the values for the IC50 (on Histone deacetylase; in assay [1]; in assay [2]) were 0.058 µM, 0.137 µM and 0.0508 µM, respectively. The Ki in assay [1] is 0.0231 µM; in assay [2], 0.0066 µM.
Take `O=C1CCc2c(ccc3ccccc23)O1` [SPLITOMICIN]: the IC50 (on Histone deacetylase; in assay [1]; in assay [2]) was above 75 µM throughout. For the same molecule, the Ki in assay [1] and in assay [2] was above 75 µM throughout.
